Measurements from ChEMBL document CHEMBL2074345, “Expression cloning and characterization of a novel multispecific organic anion transporter” (J Biol Chem, 1997).

What was measured:
[1] = biological target: T1, Solute carrier family 22 member 6 (Rattus norvegicus, UniProt O35956); assay: TP_TRANSPORTER: uptake in Xenopus laevis oocytes; type: functional, cell-based; conditions: oocyte
T1 sequence (O35956 whole entry): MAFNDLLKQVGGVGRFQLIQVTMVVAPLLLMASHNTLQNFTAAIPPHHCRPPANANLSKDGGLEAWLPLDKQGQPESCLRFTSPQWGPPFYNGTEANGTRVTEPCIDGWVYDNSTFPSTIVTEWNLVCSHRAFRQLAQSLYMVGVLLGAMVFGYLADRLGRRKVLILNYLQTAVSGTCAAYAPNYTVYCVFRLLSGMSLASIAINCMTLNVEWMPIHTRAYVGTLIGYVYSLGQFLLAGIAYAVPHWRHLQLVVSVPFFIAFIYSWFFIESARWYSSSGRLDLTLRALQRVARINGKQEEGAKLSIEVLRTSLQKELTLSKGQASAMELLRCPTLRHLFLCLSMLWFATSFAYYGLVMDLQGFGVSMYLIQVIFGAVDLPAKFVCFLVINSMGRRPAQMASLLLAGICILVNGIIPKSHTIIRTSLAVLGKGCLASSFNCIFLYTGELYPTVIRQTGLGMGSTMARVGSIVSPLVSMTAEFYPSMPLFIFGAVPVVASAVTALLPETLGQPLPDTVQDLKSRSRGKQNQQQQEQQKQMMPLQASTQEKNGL

[2] = biological target: T1, Solute carrier family 22 member 6; assay: TP_TRANSPORTER: inhibition of PAH uptake (PAH: 2 uM, Ethacrynic acid; 2000 uM) in Xenopus laevis oocytes; type: functional, cell-based, Oocyte; conditions: probe PAH (2 uM)
[3] = biological target: T1, Solute carrier family 22 member 6; assay: TP_TRANSPORTER: inhibition of PAH uptake (PAH: 2 uM, Nalidixate; 2000 uM) in Xenopus laevis oocytes; type: functional, cell-based, Oocyte; conditions: probe PAH (2 uM)
[4] = biological target: T1, Solute carrier family 22 member 6; assay: TP_TRANSPORTER: inhibition of PAH uptake (PAH: 2 uM, Valproic acid; 2000 uM) in Xenopus laevis oocytes; type: functional, cell-based, Oocyte; conditions: probe PAH (2 uM)

| Compound | Activity [1] | further results |
| --- | --- | --- |
| Nc1nc2c(ncn2[C@@H]2O[C@@H]3COP(=O)(O)O[C@H]3[C@H]2O)c(=O)[nH]1 | substrate [+] | – |
| O=C(O)CCC(=O)C(=O)O [ALPHA-KETOGLUTARIC ACID] | substrate [+] | – |
| C=C(CC)C(=O)c1ccc(OCC(=O)O)c(Cl)c1Cl [ETHACRYNIC ACID] | – | inhibition at 2000 µM [2]: > 85% |
| CCn1cc(C(=O)O)c(=O)c2ccc(C)nc21 [NALIDIXIC ACID] | – | inhibition at 2000 µM [3]: > 85% |
| CC[N+](CC)(CC)CC [TETRYLAMMONIUM] | is not a substrate [-] | – |
| O=c1[nH]c(=O)c2[nH]c(=O)[nH]c2[nH]1 [URIC ACID] | substrate [+] | – |
| CCCC(CCC)C(=O)O [VALPROIC ACID] | – | inhibition at 2000 µM [4]: > 85% |
